Consider 4 compounds from patent US6562796B2, “Derivatives of polyene macrolides and preparation and use thereof” (Micrologix Biotech Inc., priority 2000, dated 2003).

Marks after values point to notes of the source that are not given here.

For data set [1], the system named is Candida albicans. Nature of the data set: Minimum Inhibitory Concentration, broth dilution (NCCLS M27-A). In kind it is cell-based. Here is the method: Of course, compounds having MICs on the low end of these ranges, or even lower, are preferred. […] Toxicity is less of a concern for typical administration, as is water solubility.
(§1) For each compound Minimum Inhibitory Concentrations (MIC) were determined as described in Reference Method for Broth Dilution Antifungal Susceptibility Testing of Yeasts; Approved Standard; NCCLS document M27-A (ISBN 1-56238-328-0); NCCLS, 940 West Valley Road, Suite 1400, Wayne, Pa. 19087, 1997. […] Ten microliter samples were removed from the corresponding wells and deposited onto blood agar plates. Plates were incubated at 35° C. for 48 hours. The highest compound dilution at which no colonies are apparent on the plate was considered the MFC. Maximum non-lethal dose (NLD) data were also obtained for each product by initially intravenously administering a single 16 mg/kg dose to each of 4 mice in several groups. After review of findings, higher or lower doses were administered and a maximum non-lethal dose was determined. Ed50 data were also obtained for each compound. Efficacy was evaluated in mice injected with C. albicans. Therapeutic efficacy was defined as a 2 log reduction in kidney cfu relative to mean vehicle control.

Data set [2] deals with Candida albicans. Kind of data set: Minimum Fungicidal Concentration, plating from MIC wells on blood agar. In kind it is cell-based. Conditions: blood agar plates, 35° C., 48 hours. Here is the method:
as §1

A further data set deals with rats. Conditions: compared with amphotericin B; cited from earlier work.
A further data set deals with dogs. The following applies: compared with amphotericin B; cited from earlier work.
Data set [3] has as its system patients with systemic fungal infections. The following applies: human, in vivo; cited from earlier work.
The subject of the next data set is C. albicans. Kind of data set: Efficacy in mice injected with C. albicans (kidney cfu reduction). In kind it is in vivo, Candida albicans. The following applies: for ED50: Candida albicans, mice injected with C. albicans, efficacy = 2 log reduction in kidney cfu relative to mean vehicle control, read-out: ED50 Kidney CFU Red.; for level of Candida albicans in the kidneys of mice (FIG. 1): treated mice, compared with AME. Here is the method: as §1

Data set [4] relates to mice. The following applies: cited from earlier work.
For data set [5], the system named is mice. Nature of the data set: Maximum non-lethal dose, single intravenous dose in mice. The class given is in vivo. As for the experimental part:
as §1

As to `COC(=O)[C@H]1[C@@H]2C[C@@H](O[C@@H]3O[C@H](C)[C@@H](O)[C@H](N)[C@@H]3O)/C=C/C=C/C=C/C=C/C=C/C=C/C=C/[C@H](C)[C@@H](O)[C@@H](C)[C@H](C)OC(=O)C[C@H](O)C[C@H](O)CC[C@@H](O)[C@H](O)C[C@H](O)C[C@](O)(C[C@@H]1O)O2` [AME, amphotericin B methyl ester], in the data set with Candida albicans [1], the “Micro. Data (DLM/CJ) MIC” value is listed as 1. Moreover, the “Micro. Data (DLM/CJ) MFC” value in the data set with Candida albicans [2] is reported as 2. Moreover, the “acute, nephro and hepto toxicity” value with rats was “lower acute, nephro and hepto toxicity than amphotericin B”; in the data set with dogs, “lower acute, nephro and hepto toxicity than amphotericin B”. The “neurological toxicity in clinical trial” value in data set [3] was “many patients developed progressive neurological dysfunction associated with white matter degeneration”.
With `C[C@@H]1[C@H](O)[C@@H](C)/C=C/C=C/C=C/C=C/C=C/C=C/C=C/[C@H](O[C@@H]2O[C@H](C)[C@@H](O)[C@H](N)[C@@H]2O)C[C@@H]2O[C@](O)(C[C@@H](O)C[C@@H](O)[C@H](O)CC[C@@H](O)C[C@@H](O)CC(=O)O[C@H]1C)C[C@H](O)[C@H]2C(=O)O` [AmB, amphotericin B, reference compound], the “Micro. Data (DLM/CJ) MIC” value in the data set with Candida albicans [1] amounted to 0.5. For the same compound, in the data set with Candida albicans [2], the “Micro. Data (DLM/CJ) MFC” value turned out to be 2. Moreover, the ED50 (usually the dose at which the effect has come halfway, by size or by number of responders) in the data set on C. albicans was determined as 3.58 mg/kg. Moreover, the “NLD (maximum non-lethal dose), literature value” with mice [4] is recorded as 2-4* mg/kg. Further, the “Water Sol.” value in “Water solubility” is given as “negligible”.
As to `COC(=O)C1C2C[C@@H](OC3O[C@H](C)[C@@H](O)[C@H](NC[C@@]4(O)OC[C@@H](O)[C@H](O)[C@@H]4O)[C@@H]3O)/C=C/C=C/C=C/C=C/C=C/C=C/C=C/[C@H](C)[C@@H](O)[C@@H](C)[C@H](C)OC(=O)C[C@H](O)C[C@H](O)CC[C@@H](O)[C@H](O)C[C@H](O)C[C@](O)(C[C@@H]1O)O2` (stereo partly shown) [Compound C1, N-tagatopyranose-amphotericin B methyl ester], in the data set on Candida albicans [1], the “Micro. Data (DLM/CJ) MIC” value is reported as 2. In addition, the “Micro. Data (DLM/CJ) MFC” value with Candida albicans [2] is 2. For the same compound, the “NLD (maximum non-lethal dose)” value in the data set with mice [5] is listed as greater than 64 mg/kg. Further, in the data set on C. albicans, the ED50 was less than 3 mg/kg and the “level of Candida albicans in the kidneys of mice (FIG. 1)” value is listed as “significantly lower”. Moreover, the “Water Sol.” value in “Water solubility” was greater than 16 mg/mL.
For `COC(=O)C1C2C[C@@H](OC3O[C@H](C)[C@@H](O)[C@H](NC[C@@]4(O)OC[C@@H](O)[C@@H](OC5O[C@H](CO)[C@H](O)[C@H](O)[C@H]5O)[C@@H]4O)[C@@H]3O)/C=C/C=C/C=C/C=C/C=C/C=C/C=C/[C@H](C)[C@@H](O)[C@@H](C)[C@H](C)OC(=O)C[C@H](O)C[C@H](O)CC[C@@H](O)[C@H](O)C[C@H](O)C[C@](O)(C[C@@H]1O)O2` (stereo partly shown) [Compound C2], the “Micro. Data (DLM/CJ) MIC” value in the data set on Candida albicans [1] is 2. In addition, in the data set with Candida albicans [2], the “Micro. Data (DLM/CJ) MFC” value is given as 2. In addition, in the data set on mice [5], the “NLD (maximum non-lethal dose)” value is given as greater than 64 mg/kg. Further, in the data set on C. albicans, the ED50 was less than 3 mg/kg and the “level of Candida albicans in the kidneys of mice (FIG. 1)” value is recorded as “significantly lower”. Also, the “Water Sol.” value in the data set “Water solubility” is on record as greater than 16 mg/mL.
